A short description of the series: Lipophilicity, n-octanol/PBS (pH 7.4) distribution coefficient. Type of series: physicochemical. The following applies: 177Lu-labelled peptide; n-octanol/PBS pH 7.4; read-out: logD7.4. As to the method: Lipophilicity (depicted as octanol-phosphate-buffered saline solution (PBS, pH = 7.4) distribution coefficient, logD7.4) was determined via dissolving the ^177Lu-labelled peptide (approx. 1 MBq) in a mixture (1/1, v/v) of n-octanol and PBS. The suspension was vortexed in a reaction vial (1.5 mL) for 3 min at RT and the vial was centrifuged at 9000× […] for 5 min (Biofuge 15, Heraus Sepatech GmbH, Osterode, Germany). 200 μL aliquots of both layers were measured separately in a γ-counter (Perkin Elmer, Waltham, MA, USA). The experiment was repeated at least five times.

Five compounds from publication PMC9783573, “Introduction of a SiFA Moiety into the D-Glutamate Chain of DOTA-PP-F11N Results in Radiohybrid-Based CCK-2R-Targeted Compounds with Improved Pharmacokinetics In Vivo” (Pharmaceuticals, 2022) can be followed below.

Starred links: 1 amine or outer side, 2 acyl side, 3 side chain; linkers in the order of their positions; H or OH if unused. Non-standard residues stand in square brackets, D forms with d. Residues, ends and D or L forms follow the SMILES beside them. *: point of attachment. X1 = O=C(O)CN1CCN(CC(=O)O)CCN([C@H](CCC(=O)*)C(=O)O)CCN(CC(=O)O)CC1; Benzoyl(4-SiFtBu2) = CC(C)(C)[Si](F)(c1ccc(C(=O)*)cc1)C(C)(C)C; d(γGlu) = O=C(O)[C@@H](CCC(=O)[*:2])N[*:1]; Nle = CCCC[C@H](N)C(=O)O; dDap = NC[C@@H](N)C(=O)O

As for `CCCC[C@H](NC(=O)[C@H](Cc1c[nH]c2ccccc12)NC(=O)CNC(=O)[C@H](Cc1ccc(O)cc1)NC(=O)[C@H](C)NC(=O)CC[C@@H](NC(=O)CC[C@@H](NC(=O)CC[C@@H](NC(=O)CC[C@@H](NC(=O)CC[C@@H](NC(=O)CC[C@@H](NC(=O)CC[C@@H](NC(=O)[C@@H](CNC(=O)c1ccc([Si](F)(C(C)(C)C)C(C)(C)C)cc1)NC(=O)CC[C@H](C(=O)O)N1CCN(CC(=O)O)CCN(CC(=O)O)CCN(CC(=O)O)CC1)C(=O)O)C(=O)O)C(=O)O)C(=O)O)C(=O)O)C(=O)O)C(=O)O)C(=O)N[C@@H](CC(=O)O)C(=O)N[C@@H](Cc1ccccc1)C(N)=O` [[nat/177Lu]Lu-(R)-DOTAGA-rhCCK-17, metal not drawn], the logD was -2.1 ± 0.06.
Then `CCCC[C@H](NC(=O)[C@H](Cc1c[nH]c2ccccc12)NC(=O)CNC(=O)[C@H](Cc1ccc(O)cc1)NC(=O)[C@H](C)NC(=O)[C@@H](CCC(=O)O)NC(=O)[C@@H](CCC(=O)O)NC(=O)[C@@H](CCC(=O)O)NC(=O)[C@@H](CCC(=O)O)NC(=O)[C@@H](CCC(=O)O)NC(=O)[C@@H](CCC(=O)O)NC(=O)[C@@H](CNC(=O)c1ccc([Si](F)(C(C)(C)C)C(C)(C)C)cc1)NC(=O)CC[C@H](C(=O)O)N1CCN(CC(=O)O)CCN(CC(=O)O)CCN(CC(=O)O)CC1)C(=O)N[C@@H](CC(=O)O)C(=O)N[C@@H](Cc1ccccc1)C(N)=O` [[nat/177Lu]Lu-(R)-DOTAGA-rhCCK-7, metal not drawn] (X1-[dDap](Benzoyl(4-SiFtBu2))[dE][dE][dE][dE][dE][dE]AYGW[Nle]DF-NH2), with -2.63 ± 0.08; and `CCCC[C@H](NC(=O)[C@H](Cc1c[nH]c2ccccc12)NC(=O)CNC(=O)[C@H](Cc1ccc(O)cc1)NC(=O)[C@H](C)NC(=O)[C@@H](CNC(=O)c1ccc([Si](F)(C(C)(C)C)C(C)(C)C)cc1)NC(=O)[C@@H](CCC(=O)O)NC(=O)[C@@H](CCC(=O)O)NC(=O)[C@@H](CCC(=O)O)NC(=O)[C@@H](CCC(=O)O)NC(=O)[C@@H](CCC(=O)O)NC(=O)[C@@H](CCC(=O)O)NC(=O)CC[C@H](C(=O)O)N1CCN(CC(=O)O)CCN(CC(=O)O)CCN(CC(=O)O)CC1)C(=O)N[C@@H](CC(=O)O)C(=O)N[C@@H](Cc1ccccc1)C(N)=O` [[nat/177Lu]Lu-(R)-DOTAGA-rhCCK-1, metal not drawn] (X1-[dE][dE][dE][dE][dE][dE][dDap](Benzoyl(4-SiFtBu2))AYGW[Nle]DF-NH2), with -1.71 ± 0.1; and `CCCC[C@H](NC(=O)[C@H](Cc1c[nH]c2ccccc12)NC(=O)CNC(=O)[C@H](Cc1ccc(O)cc1)NC(=O)[C@H](C)NC(=O)CC[C@@H](NC(=O)CC[C@@H](NC(=O)CC[C@@H](NC(=O)CC[C@@H](NC(=O)CC[C@@H](NC(=O)[C@@H](CNC(=O)c1ccc([Si](F)(C(C)(C)C)C(C)(C)C)cc1)NC(=O)CC[C@@H](NC(=O)CC[C@H](C(=O)O)N1CCN(CC(=O)O)CCN(CC(=O)O)CCN(CC(=O)O)CC1)C(=O)O)C(=O)O)C(=O)O)C(=O)O)C(=O)O)C(=O)O)C(=O)N[C@@H](CC(=O)O)C(=O)N[C@@H](Cc1ccccc1)C(N)=O` [[nat/177Lu]Lu-(R)-DOTAGA-rhCCK-15, metal not drawn] ({X1-d(γGlu)}-[dDap](Benzoyl(4-SiFtBu2))[d(γGlu)][d(γGlu)][d(γGlu)][d(γGlu)][d(γGlu)]AYGW[Nle]DF-NH2), with -2.5 ± 0.02.
The result for `CCCC[C@H](NC(=O)[C@H](Cc1c[nH]c2ccccc12)NC(=O)CNC(=O)[C@H](Cc1ccc(O)cc1)NC(=O)[C@H](C)NC(=O)[C@@H](CCC(=O)O)NC(=O)[C@@H](CCC(=O)O)NC(=O)[C@@H](CCC(=O)O)NC(=O)[C@@H](CCC(=O)O)NC(=O)[C@@H](CCC(=O)O)NC(=O)[C@@H](CNC(=O)c1ccc([Si](F)(C(C)(C)C)C(C)(C)C)cc1)NC(=O)[C@@H](CCC(=O)O)NC(=O)CC[C@H](C(=O)O)N1CCN(CC(=O)O)CCN(CC(=O)O)CCN(CC(=O)O)CC1)C(=O)N[C@@H](CC(=O)O)C(=O)N[C@@H](Cc1ccccc1)C(N)=O` [[nat/177Lu]Lu-(R)-DOTAGA-rhCCK-6, metal not drawn] (X1-[dE][dDap](Benzoyl(4-SiFtBu2))[dE][dE][dE][dE][dE]AYGW[Nle]DF-NH2) reads -2.22 ± 0.08.
